Reference: PubChem BioAssay AID1963851 (Molecular Pharmacology Branch, DTP, NCI, 2024)
“And” between values parts separate entries of the source, which are not always exact repeats. Equal values may be shown once.

Tested on: 188146-221-R-J1-PDC complex spheroid viability
Test: Anticancer human tumor 188146-221-R-J1-PDC patient-derived colon adenocarcinoma cell line growth inhibition [POLQ]
Details: for viability, T/C: stronger effect = lower value
Description: Multicellular complex tumor spheroid response to Polymerase (POL) inhibitors (novobiocin, ART-558, RP6685) in combination with a variety of drugs and investigational agents in selected tumor cell lines
The POL inhibitors (novobiocin, ART-558, and RP6685) were evaluated both individually and in combination with standard of care and investigational anticancer small molecules within a complex spheroid model of solid tumors. . Complex spheroids include a stromal component modeled by human endothelial cells (HUVEC) and fibroblasts modeled by human mesenchymal stem cells (MSCs). The concentration ranges selected for each drug and investigational agent were based upon clinically achievable concentrations if the clinical Cmax of the agent was known.
Compounds. The drugs and investigational agents: novobiocin (NSC847541), ART-558 (NSC835418), RP-6685 (NSC848927), peposertib (NSC802822), ceralasertib (NSC780249), elimusertib (NSC800525), camonsertib (NSC841442), AZD-1390 (NSC803789), olaparib (NSC753686), talazoparib (NSC767125), rucaparib (NSC756644), sotorasib (NSC818433), MRTX-1133 (NSC836407), SN-38 (NSC673596), topotecan (NSC609699), epotoside (NSC141540), doxorubicin (NSC123127), gemcitabine (NSC613327), 5-fluorouracil (NSC19893), paclitaxel (NSC125973), vemurafenib (NSC761431), MSA-2 (NSC828583), SN-011 (NSC837082), adavosertib (NSC754352), prexasertib (NSC758257), carboplatin (NSC241240) and oxaliplatin (NSC266046), were obtained from the National Cancer Institute (NCI) Developmental Therapeutics Program Chemical Repository (21). The FDA-approved anticancer drug set is available from the Developmental Therapeutics Program at https://dtp.cancer.gov/organization/dscb/obtaining/. […] The stock solutions were prepared in dimethyl sulfoxide (DMSO, Sigma-Aldrich, St. Louis, MO, cat. D2650), except for the platinum compounds which were prepared in saline (Quality Biological, Gaithersburg, MD, cat. 114-055-101), at 800-fold the tested concentration and stored at -70 degrees C prior to their use. All drugs and investigational agents were tested over a range starting from a high concentration at or near the clinical Cmax and decreasing in half-log increments. If the clinical Cmax for an agent had not been determined, the highest concentration tested was 10 microM, except for SN-38, which was tested at a high concentration of 1 microM.
Cell Culture. All cells were maintained in an incubator at 37 degrees C and 5% CO2 with 95% humidity. The PDC lines were cultured according to standard operating procedures established by the NCI PDMR (https://pdmr.cancer.gov). Table 3 of the manuscript, lists the cell lines along with the number of the three cell types plated to form the mct-spheroids and media for tumor cell growth. After thawing, all PDC lines, except 997537-175-T-J1-PDC and 415267-285-R-J2-PDC, were cultured in Matrigel-coated flasks prepared with a working solution of 1X Ham's F-12 nutrient mix, without supplementation (Thermo Fisher Scientific, cat. 11765054), 100 U/mL penicillin-streptomycin (Thermo Fisher Scientific, cat. 15140122), and 2.5% Matrigel (Corning Inc., Corning, NY, cat. 354248) for the first three passages. The two PDC lines 997537-175-T-J1-PDC and 415267-285-R-J2-PDC were cultured on uncoated flasks. The 857933-349-R-J2-PDC line was cultured in 6C/Colon 1B media containing advanced DMEM/F-12 (Thermo Fisher Scientific, cat. 12634028), 10 mM HEPES (Thermo Fisher Scientific, cat. 15630080), 1X GlutaMAX supplement (Thermo Fisher Scientific, cat. 35050061), 0.1 mg/mL primocin (InvivoGen, San Diego, CA, cat. ant-pm-2), 10% defined fetal bovine serum, heat inactivated (HyClone Laboratories Inc., Logan, UT, cat. SH30070.03HI), 50% L-WRN conditioned media (ATCC, cat. CRL-3276), 1.25 mM N-Acetyl-L-cysteine (Sigma-Aldrich, cat. A9165), 10 mM nicotinamide (Sigma-Aldrich, cat. N0636), 1X B-27 supplement (Thermo Fisher Scientific, cat. 17504044), 1X N-2 supplement (Thermo Fisher Scientific, cat. […]

[1] = curve of first compound, second compound 0.0316 µM
[2] = curve of first compound, second compound 0.1 µM
[3] = curve of first compound, second compound 0.316 µM
[4] = curve of first compound, second compound 1 µM
[5] = curve of first compound, second compound 3.16 µM
[6] = curve of first compound, second compound 10 µM
[7] = second compound 0.0316 µM, first compound 0.0316 µM
[8] = second compound 0.0316 µM, first compound 0.1 µM
[9] = second compound 0.0316 µM, first compound 0.316 µM
[10] = second compound 0.0316 µM, first compound 1 µM
[11] = second compound 0.0316 µM, first compound 3.16 µM
[12] = second compound 0.0316 µM, first compound 10 µM
[13] = second compound 0.1 µM, first compound 0.0316 µM
[14] = second compound 0.1 µM, first compound 0.1 µM
[15] = second compound 0.1 µM, first compound 0.316 µM
[16] = second compound 0.1 µM, first compound 1 µM
[17] = second compound 0.1 µM, first compound 3.16 µM
[18] = second compound 0.1 µM, first compound 10 µM
[19] = second compound 0.316 µM, first compound 0.0316 µM
[20] = second compound 0.316 µM, first compound 0.1 µM
[21] = second compound 0.316 µM, first compound 0.316 µM
[22] = second compound 0.316 µM, first compound 1 µM
[23] = second compound 0.316 µM, first compound 3.16 µM
[24] = second compound 0.316 µM, first compound 10 µM
[25] = second compound 1 µM, first compound 0.0316 µM
[26] = second compound 1 µM, first compound 0.1 µM
[27] = second compound 1 µM, first compound 0.316 µM
[28] = second compound 1 µM, first compound 1 µM
[29] = second compound 1 µM, first compound 3.16 µM
[30] = second compound 1 µM, first compound 10 µM
[31] = second compound 3.16 µM, first compound 0.0316 µM
[32] = second compound 3.16 µM, first compound 0.1 µM
[33] = second compound 3.16 µM, first compound 0.316 µM
[34] = second compound 3.16 µM, first compound 1 µM
[35] = second compound 3.16 µM, first compound 3.16 µM
[36] = second compound 3.16 µM, first compound 10 µM
[37] = second compound 10 µM, first compound 0.0316 µM
[38] = second compound 10 µM, first compound 0.1 µM
[39] = second compound 10 µM, first compound 0.316 µM
[40] = second compound 10 µM, first compound 1 µM
[41] = second compound 10 µM, first compound 3.16 µM
[42] = second compound 10 µM, first compound 10 µM
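Further: spheroids exposed to compounds for seven days.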
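Wherever viability, T/C is given: 100% = DMSO vehicle control viability.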

Nc1ccn(C2OC(CO)C(O)C2(F)F)c(=O)n1 (stereo not drawn) + Nc1ccc(C#CCN(C(=O)Cc2ncc(C(F)(F)F)cc2C(F)(F)F)c2ccc(F)cc2)nn1
IC50 [1]: < 0.0316 µM | IC50 [2]: < 0.0316 µM | IC50 [3]: < 0.0316 µM | IC50 [4]: < 0.0316 µM | IC50 [5]: < 0.0316 µM | IC50 [6]: < 0.0316 µM | viability, T/C [7]: 27.5% | viability, T/C [8]: 18% | viability, T/C [9]: 17.3% | viability, T/C [10]: 17.3% | viability, T/C [11]: 17.6% | viability, T/C [12]: 12.2% | viability, T/C [13]: 33.5% | viability, T/C [14]: 18% | viability, T/C [15]: 18.8% | viability, T/C [16]: 15.2% | viability, T/C [17]: 15.3% | viability, T/C [18]: 16.1% | viability, T/C [19]: 32.9% | viability, T/C [20]: 17.4% | viability, T/C [21]: 15.9% | viability, T/C [22]: 16.3% | viability, T/C [23]: 16.4% | viability, T/C [24]: 15.9% | viability, T/C [25]: 30.1% | viability, T/C [26]: 17.6% | viability, T/C [27]: 18% | viability, T/C [28]: 16.6% | viability, T/C [29]: 19% | viability, T/C [30]: 14.2% | viability, T/C [31]: 27.4% | viability, T/C [32]: 19.8% | viability, T/C [33]: 15.3% | viability, T/C [34]: 17.1% | viability, T/C [35]: 16.6% | viability, T/C [36]: 15.4% | viability, T/C [37]: 40.4% | viability, T/C [38]: 23.2% | viability, T/C [39]: 20.3% | viability, T/C [40]: 19.1% | viability, T/C [41]: 19.4% | viability, T/C [42]: 14.9%

COc1cc(C2c3cc4c(cc3C(OC3OC5COC(C)OC5C(O)C3O)C3COC(=O)C23)OCO4)cc(OC)c1O (stereo not drawn)
viability, T/C (compound 0.0316 µM): 115% and 92.4% and 98.7% | viability, T/C (compound 0.1 µM): 102% and 84.8% and 107% | viability, T/C (compound 0.316 µM): 77% and 71.8% and 65.6% | viability, T/C (compound 1 µM): 51.8% and 43.3% and 50.5% | viability, T/C (compound 3.16 µM): 30.1% and 27.2% and 24.4% | viability, T/C (compound 10 µM): 23.1% and 24.8% and 25% | IC50 (curve of compound): 1.03 µM and 0.758 µM and 0.789 µM

O=c1[nH]cc(F)c(=O)[nH]1
viability, T/C (compound 0.0316 µM): 102% and 101% and 107% | viability, T/C (compound 0.1 µM): 95.6% and 97.8% and 103% | viability, T/C (compound 0.316 µM): 66.6% and 74% and 69.3% | viability, T/C (compound 1 µM): 59.6% and 61.5% and 58.3% | viability, T/C (compound 3.16 µM): 44.9% and 51.3% and 45.6% | viability, T/C (compound 10 µM): 31.6% and 43.5% and 31.8% | IC50 (curve of compound): 1.83 µM and 3.02 µM and 1.68 µM

C#Cc1c(F)ccc2cc(O)cc(-c3ncc4c(N5CC6CCC(C5)N6)nc(OCC56CCCN5CC(F)C6)nc4c3F)c12 (stereo not drawn) + Nc1ccc(C#CCN(C(=O)Cc2ncc(C(F)(F)F)cc2C(F)(F)F)c2ccc(F)cc2)nn1
IC50 [1]: > 10 µM | IC50 [2]: > 10 µM | IC50 [3]: > 10 µM | IC50 [4]: > 10 µM | IC50 [5]: > 10 µM | IC50 [6]: > 10 µM | viability, T/C [7]: 94.3% | viability, T/C [8]: 100% | viability, T/C [9]: 98.2% | viability, T/C [10]: 89.7% | viability, T/C [11]: 83.2% | viability, T/C [12]: 89.4% | viability, T/C [13]: 99.9% | viability, T/C [14]: 105% | viability, T/C [15]: 95.5% | viability, T/C [16]: 95.1% | viability, T/C [17]: 89.9% | viability, T/C [18]: 103% | viability, T/C [19]: 103% | viability, T/C [20]: 83.5% | viability, T/C [21]: 100% | viability, T/C [22]: 96.8% | viability, T/C [23]: 87.8% | viability, T/C [24]: 86.6% | viability, T/C [25]: 88.6% | viability, T/C [26]: 86.7% | viability, T/C [27]: 98.8% | viability, T/C [28]: 92.3% | viability, T/C [29]: 91.3% | viability, T/C [30]: 80.8% | viability, T/C [31]: 106% | viability, T/C [32]: 102% | viability, T/C [33]: 102% | viability, T/C [34]: 95.9% | viability, T/C [35]: 100% | viability, T/C [36]: 86.5% | viability, T/C [37]: 102% | viability, T/C [38]: 93.5% | viability, T/C [39]: 87.1% | viability, T/C [40]: 105% | viability, T/C [41]: 106% | viability, T/C [42]: 89.5%
